Measured values reported in ChEMBL document CHEMBL5715260, “Selectivity Literature for EUbOPEN Chemogenomic Library” (2024).
One block for each compound: values may come before it.

Legend:
[1] = biological target: Nuclear receptor subfamily 4immunitygroup A member 1 (Homo sapiens) (UniProt P22736); assay: Selectivity interaction (Reporter gene assay) EUB0001136a NR4A1; set-up: recommended concentration 1 uM
[2] = biological target: T1, Alpha trans-inducing protein (Human alphaherpesvirus 1) (UniProt A0A5J6DW59); assay: Selectivity interaction (Reporter gene assay) EUB0001136a UL48; set-up: recommended concentration 1 uM
[3] = biological target: T2, Nuclear receptor subfamily 2 group C member 1 (Homo sapiens) (UniProt P13056); assay: Selectivity interaction (Reporter gene assay) EUB0001136a NR2C1; set-up: recommended concentration 1 uM
T2 sequence (whole entry): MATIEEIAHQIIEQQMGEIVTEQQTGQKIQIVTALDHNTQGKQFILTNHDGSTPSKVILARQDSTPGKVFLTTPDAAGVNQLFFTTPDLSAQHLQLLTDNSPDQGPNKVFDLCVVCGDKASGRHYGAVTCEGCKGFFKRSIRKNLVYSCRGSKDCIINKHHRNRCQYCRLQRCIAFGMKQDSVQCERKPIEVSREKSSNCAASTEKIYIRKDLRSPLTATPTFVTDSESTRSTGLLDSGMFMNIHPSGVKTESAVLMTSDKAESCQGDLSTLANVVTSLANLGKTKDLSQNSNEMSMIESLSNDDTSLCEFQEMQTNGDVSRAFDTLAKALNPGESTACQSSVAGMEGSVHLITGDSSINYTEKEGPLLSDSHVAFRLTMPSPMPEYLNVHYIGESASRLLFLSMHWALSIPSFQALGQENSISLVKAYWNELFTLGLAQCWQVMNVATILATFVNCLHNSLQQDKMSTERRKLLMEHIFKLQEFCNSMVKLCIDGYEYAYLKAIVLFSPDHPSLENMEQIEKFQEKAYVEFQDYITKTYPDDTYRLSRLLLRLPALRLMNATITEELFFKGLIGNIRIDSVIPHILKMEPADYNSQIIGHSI

[4] = biological target: Nuclear receptor subfamily 2 group E member 1 (Homo sapiens) (UniProt Q9Y466); assay: Selectivity interaction (Reporter gene assay) EUB0001136a NR2E1; set-up: recommended concentration 1 uM; details: screened at recom. conc., Selectivity number of off-targets 2.0, Selectivity number of targets 5.0, Source Knowledge inhouse
[5] = biological target: Nuclear receptor ROR-beta (Homo sapiens) (UniProt Q92753); assay: Selectivity interaction (Reporter gene assay) EUB0001136a RORB; set-up: recommended concentration 1 uM; details: screened at recom. conc., Selectivity number of off-targets 3.0, Selectivity number of targets 19.0, Source Knowledge inhouse
[6] = biological target: Steroidogenic factor 1 (Homo sapiens) (UniProt Q13285); assay: Selectivity interaction (Reporter gene assay) EUB0001136a NR5A1; set-up: recommended concentration 1 uM; details: screened at recom. conc., Selectivity number of off-targets 2.0, Selectivity number of targets 5.0, Source Knowledge inhouse
[7] = biological target: Nuclear receptor ROR-alpha (Homo sapiens) (UniProt P35398); assay: Selectivity interaction (Reporter gene assay) EUB0001136a RORA; set-up: recommended concentration 1 uM; details: screened at recom. conc., Selectivity number of off-targets 3.0, Selectivity number of targets 19.0, Source Knowledge inhouse
[8] = biological target: T3, Hepatocyte nuclear factor 4-alpha (Homo sapiens) (UniProt P41235); assay: Selectivity interaction (Reporter gene assay) EUB0001136a HNF4A; set-up: recommended concentration 1 uM
T3 sequence (whole entry): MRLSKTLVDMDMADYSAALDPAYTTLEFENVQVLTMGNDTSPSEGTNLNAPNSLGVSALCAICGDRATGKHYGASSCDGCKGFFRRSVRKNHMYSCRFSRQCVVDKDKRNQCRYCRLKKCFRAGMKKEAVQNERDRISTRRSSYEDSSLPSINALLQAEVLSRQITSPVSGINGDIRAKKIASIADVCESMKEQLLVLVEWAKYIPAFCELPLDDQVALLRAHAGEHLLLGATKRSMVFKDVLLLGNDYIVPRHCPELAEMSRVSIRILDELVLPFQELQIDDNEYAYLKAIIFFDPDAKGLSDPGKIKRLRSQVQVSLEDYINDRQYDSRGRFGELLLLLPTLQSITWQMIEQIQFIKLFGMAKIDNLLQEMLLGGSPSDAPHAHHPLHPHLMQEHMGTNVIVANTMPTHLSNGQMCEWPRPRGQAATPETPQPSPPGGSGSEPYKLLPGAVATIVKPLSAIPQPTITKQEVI

[9] = biological target: Nuclear receptor ROR-gamma (Homo sapiens) (UniProt P51449); assay: Selectivity interaction (Reporter gene assay) EUB0001136a RORC; set-up: recommended concentration 1 uM; details: screened at recom. conc., Selectivity number of off-targets 3.0, Selectivity number of targets 19.0, Source Knowledge inhouse
[10] = biological target: Nuclear receptor subfamily 4immunitygroup A member 1 (Homo sapiens) (UniProt P22736); assay: Selectivity interaction (Reporter gene assay) EUB0001139a NR4A1; set-up: recommended concentration 1 uM
[11] = biological target: T2, Nuclear receptor subfamily 2 group C member 1 (Homo sapiens); assay: Selectivity interaction (Reporter gene assay) EUB0001139a NR2C1; set-up: recommended concentration 1 uM
[12] = biological target: T4, Retinoic acid receptor RXR-alpha (Homo sapiens) (UniProt P19793); assay: Selectivity interaction (Reporter gene assay) EUB0001139a RXRA; set-up: recommended concentration 1 uM
T4 sequence (whole entry): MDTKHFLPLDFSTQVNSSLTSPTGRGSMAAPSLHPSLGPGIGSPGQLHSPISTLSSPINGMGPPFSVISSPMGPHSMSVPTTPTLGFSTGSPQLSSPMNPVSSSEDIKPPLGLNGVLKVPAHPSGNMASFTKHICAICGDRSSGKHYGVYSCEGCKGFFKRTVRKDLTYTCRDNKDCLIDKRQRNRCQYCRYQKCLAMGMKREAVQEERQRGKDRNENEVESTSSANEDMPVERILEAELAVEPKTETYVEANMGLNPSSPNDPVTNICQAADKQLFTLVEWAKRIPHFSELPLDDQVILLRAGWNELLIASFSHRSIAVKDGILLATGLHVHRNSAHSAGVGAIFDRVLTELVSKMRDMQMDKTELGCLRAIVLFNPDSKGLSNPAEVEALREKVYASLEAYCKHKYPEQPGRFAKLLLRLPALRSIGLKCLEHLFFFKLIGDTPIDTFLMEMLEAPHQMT

[13] = biological target: Steroidogenic factor 1 (Homo sapiens) (UniProt Q13285); assay: Selectivity interaction (Reporter gene assay) EUB0001139a NR5A1; set-up: recommended concentration 1 uM; details: screened at recom. conc., Selectivity number of off-targets 1.0, Selectivity number of targets 5.0, Source Knowledge inhouse
[14] = biological target: T1, Alpha trans-inducing protein (Human alphaherpesvirus 1); assay: Selectivity interaction (Reporter gene assay) EUB0001139a UL48; set-up: recommended concentration 1 uM
[15] = biological target: T3, Hepatocyte nuclear factor 4-alpha (Homo sapiens); assay: Selectivity interaction (Reporter gene assay) EUB0001139a HNF4A; set-up: recommended concentration 1 uM
[16] = biological target: Nuclear receptor subfamily 2 group E member 1 (Homo sapiens) (UniProt Q9Y466); assay: Selectivity interaction (Reporter gene assay) EUB0001139a NR2E1; set-up: recommended concentration 1 uM
[17] = biological target: T1, Alpha trans-inducing protein (Human alphaherpesvirus 1); assay: Selectivity interaction (Reporter gene assay) EUB0001143a UL48; set-up: recommended concentration 1 uM
[18] = biological target: T3, Hepatocyte nuclear factor 4-alpha (Homo sapiens); assay: Selectivity interaction (Reporter gene assay) EUB0001143a HNF4A; set-up: recommended concentration 1 uM
[19] = biological target: Steroidogenic factor 1 (Homo sapiens) (UniProt Q13285); assay: Selectivity interaction (Reporter gene assay) EUB0001143a NR5A1; set-up: recommended concentration 1 uM
[20] = biological target: T4, Retinoic acid receptor RXR-alpha (Homo sapiens); assay: Selectivity interaction (Reporter gene assay) EUB0001143a RXRA; set-up: recommended concentration 1 uM; details: reference bexarotene 1 uM, Selectivity number of off-targets 0.0, Selectivity number of targets 1.0, Source Knowledge inhouse
[21] = biological target: Nuclear receptor subfamily 4immunitygroup A member 1 (Homo sapiens) (UniProt P22736); assay: Selectivity interaction (Reporter gene assay) EUB0001143a NR4A1; set-up: recommended concentration 1 uM
[22] = biological target: T2, Nuclear receptor subfamily 2 group C member 1 (Homo sapiens); assay: Selectivity interaction (Reporter gene assay) EUB0001143a NR2C1; set-up: recommended concentration 1 uM
[23] = biological target: Nuclear receptor subfamily 2 group E member 1 (Homo sapiens) (UniProt Q9Y466); assay: Selectivity interaction (Reporter gene assay) EUB0001143a NR2E1; set-up: recommended concentration 1 uM
[24] = biological target: Nuclear receptor subfamily 4immunitygroup A member 1 (Homo sapiens) (UniProt P22736); assay: Selectivity interaction (Reporter gene assay) EUB0000835a NR4A1; set-up: recommended concentration 1 uM
[25] = biological target: T3, Hepatocyte nuclear factor 4-alpha (Homo sapiens); assay: Selectivity interaction (Reporter gene assay) EUB0000835a HNF4A; set-up: recommended concentration 1 uM
[26] = biological target: Steroidogenic factor 1 (Homo sapiens) (UniProt Q13285); assay: Selectivity interaction (Reporter gene assay) EUB0000835a NR5A1; set-up: recommended concentration 1 uM
[27] = biological target: T2, Nuclear receptor subfamily 2 group C member 1 (Homo sapiens); assay: Selectivity interaction (Reporter gene assay) EUB0000835a NR2C1; set-up: recommended concentration 1 uM
[28] = biological target: T1, Alpha trans-inducing protein (Human alphaherpesvirus 1); assay: Selectivity interaction (Reporter gene assay) EUB0000835a UL48; set-up: recommended concentration 1 uM
[29] = biological target: Nuclear receptor subfamily 2 group E member 1 (Homo sapiens) (UniProt Q9Y466); assay: Selectivity interaction (Reporter gene assay) EUB0000835a NR2E1; set-up: recommended concentration 1 uM
[30] = biological target: T4, Retinoic acid receptor RXR-alpha (Homo sapiens); assay: Selectivity interaction (Reporter gene assay) EUB0000835a RXRA; set-up: recommended concentration 1 uM; details: screened at recom. conc., reference bexarotene 1 uM, Selectivity number of off-targets 1.0, Selectivity number of targets 1.0, Source Knowledge inhouse
[31] = biological target: T4, Retinoic acid receptor RXR-alpha (Homo sapiens); assay: Selectivity interaction (Reporter gene assay) EUB0001081a RXRA; set-up: recommended concentration 10 uM; details: reference bexarotene 1 uM, Selectivity number of off-targets 0.0, Selectivity number of targets 1.0, Source Knowledge inhouse
[32] = biological target: T3, Hepatocyte nuclear factor 4-alpha (Homo sapiens); assay: Selectivity interaction (Reporter gene assay) EUB0001081a HNF4A; set-up: recommended concentration 10 uM
[33] = biological target: Nuclear receptor subfamily 4immunitygroup A member 1 (Homo sapiens) (UniProt P22736); assay: Selectivity interaction (Reporter gene assay) EUB0001081a NR4A1; set-up: recommended concentration 10 uM
[34] = biological target: T1, Alpha trans-inducing protein (Human alphaherpesvirus 1); assay: Selectivity interaction (Reporter gene assay) EUB0001081a UL48; set-up: recommended concentration 10 uM
[35] = biological target: T2, Nuclear receptor subfamily 2 group C member 1 (Homo sapiens); assay: Selectivity interaction (Reporter gene assay) EUB0001081a NR2C1; set-up: recommended concentration 10 uM
[36] = biological target: Nuclear receptor subfamily 2 group E member 1 (Homo sapiens) (UniProt Q9Y466); assay: Selectivity interaction (Reporter gene assay) EUB0001081a NR2E1; set-up: recommended concentration 10 uM
[37] = biological target: Steroidogenic factor 1 (Homo sapiens) (UniProt Q13285); assay: Selectivity interaction (Reporter gene assay) EUB0001081a NR5A1; set-up: recommended concentration 10 uM

Sequence of Nuclear receptor subfamily 2 group E member 1 (Homo sapiens) (Q9Y466 whole entry): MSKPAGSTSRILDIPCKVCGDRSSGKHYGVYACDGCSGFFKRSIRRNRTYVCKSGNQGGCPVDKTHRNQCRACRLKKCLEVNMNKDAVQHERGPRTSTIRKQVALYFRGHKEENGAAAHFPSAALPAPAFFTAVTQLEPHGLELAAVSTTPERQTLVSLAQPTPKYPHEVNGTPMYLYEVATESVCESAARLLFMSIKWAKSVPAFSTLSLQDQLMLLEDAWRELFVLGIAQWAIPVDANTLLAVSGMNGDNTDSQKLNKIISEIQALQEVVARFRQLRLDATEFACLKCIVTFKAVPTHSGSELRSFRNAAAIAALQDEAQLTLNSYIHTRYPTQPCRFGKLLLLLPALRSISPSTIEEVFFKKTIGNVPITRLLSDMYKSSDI
T1 sequence (A0A5J6DW59 as listed by the source): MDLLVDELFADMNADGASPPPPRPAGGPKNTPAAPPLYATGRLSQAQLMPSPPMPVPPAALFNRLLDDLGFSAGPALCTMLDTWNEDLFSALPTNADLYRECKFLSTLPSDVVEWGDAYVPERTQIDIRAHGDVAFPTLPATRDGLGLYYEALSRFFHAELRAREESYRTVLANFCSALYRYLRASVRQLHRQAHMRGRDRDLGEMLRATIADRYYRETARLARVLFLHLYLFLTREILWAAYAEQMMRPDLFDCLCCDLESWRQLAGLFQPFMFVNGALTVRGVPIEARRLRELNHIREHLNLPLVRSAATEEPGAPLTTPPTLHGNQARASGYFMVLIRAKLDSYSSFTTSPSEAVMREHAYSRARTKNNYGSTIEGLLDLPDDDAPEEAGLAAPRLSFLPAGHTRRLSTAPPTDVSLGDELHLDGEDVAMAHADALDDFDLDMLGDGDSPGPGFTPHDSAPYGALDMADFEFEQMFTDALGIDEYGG
Sequence of Nuclear receptor subfamily 4immunitygroup A member 1 (Homo sapiens) (P22736 whole entry): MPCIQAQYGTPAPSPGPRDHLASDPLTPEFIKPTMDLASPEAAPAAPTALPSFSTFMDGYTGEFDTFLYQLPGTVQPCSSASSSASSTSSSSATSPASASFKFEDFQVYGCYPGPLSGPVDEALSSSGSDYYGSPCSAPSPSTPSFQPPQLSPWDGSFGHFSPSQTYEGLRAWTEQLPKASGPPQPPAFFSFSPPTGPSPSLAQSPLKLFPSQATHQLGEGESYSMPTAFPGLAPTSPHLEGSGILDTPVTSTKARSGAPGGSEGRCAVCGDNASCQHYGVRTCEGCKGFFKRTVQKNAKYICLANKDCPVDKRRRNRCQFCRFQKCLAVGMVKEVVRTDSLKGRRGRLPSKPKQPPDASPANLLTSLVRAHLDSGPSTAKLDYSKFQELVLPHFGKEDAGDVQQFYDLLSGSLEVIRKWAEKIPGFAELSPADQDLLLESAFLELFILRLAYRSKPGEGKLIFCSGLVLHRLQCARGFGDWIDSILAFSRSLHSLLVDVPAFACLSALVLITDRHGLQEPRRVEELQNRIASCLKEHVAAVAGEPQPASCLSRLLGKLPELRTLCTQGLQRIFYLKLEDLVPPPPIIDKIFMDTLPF
Sequence of Steroidogenic factor 1 (Homo sapiens) (Q13285 whole entry): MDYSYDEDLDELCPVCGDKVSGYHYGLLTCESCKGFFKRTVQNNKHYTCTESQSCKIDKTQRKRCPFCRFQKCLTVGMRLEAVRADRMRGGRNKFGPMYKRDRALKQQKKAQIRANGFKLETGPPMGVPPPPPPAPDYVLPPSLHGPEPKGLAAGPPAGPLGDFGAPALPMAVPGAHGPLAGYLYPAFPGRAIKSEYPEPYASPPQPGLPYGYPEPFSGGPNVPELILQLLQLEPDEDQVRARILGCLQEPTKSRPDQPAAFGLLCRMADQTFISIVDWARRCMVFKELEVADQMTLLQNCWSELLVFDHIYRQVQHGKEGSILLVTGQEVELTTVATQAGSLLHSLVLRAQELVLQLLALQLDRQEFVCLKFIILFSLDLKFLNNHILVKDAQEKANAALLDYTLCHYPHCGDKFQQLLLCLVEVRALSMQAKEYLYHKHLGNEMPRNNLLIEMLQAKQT
Sequence of Nuclear receptor ROR-beta (Homo sapiens) (Q92753 whole entry): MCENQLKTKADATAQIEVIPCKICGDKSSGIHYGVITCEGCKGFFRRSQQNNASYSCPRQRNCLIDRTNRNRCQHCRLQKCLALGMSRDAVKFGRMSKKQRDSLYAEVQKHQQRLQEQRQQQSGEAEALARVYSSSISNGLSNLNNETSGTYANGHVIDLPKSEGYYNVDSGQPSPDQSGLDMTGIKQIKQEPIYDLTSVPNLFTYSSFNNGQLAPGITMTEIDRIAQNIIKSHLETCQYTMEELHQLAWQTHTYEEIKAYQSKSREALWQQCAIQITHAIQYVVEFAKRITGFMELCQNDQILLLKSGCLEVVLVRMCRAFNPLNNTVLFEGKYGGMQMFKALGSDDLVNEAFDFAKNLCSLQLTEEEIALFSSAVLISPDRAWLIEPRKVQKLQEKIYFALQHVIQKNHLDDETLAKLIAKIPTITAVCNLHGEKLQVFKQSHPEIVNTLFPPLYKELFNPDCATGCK
Sequence of Nuclear receptor ROR-alpha (Homo sapiens) (P35398 whole entry): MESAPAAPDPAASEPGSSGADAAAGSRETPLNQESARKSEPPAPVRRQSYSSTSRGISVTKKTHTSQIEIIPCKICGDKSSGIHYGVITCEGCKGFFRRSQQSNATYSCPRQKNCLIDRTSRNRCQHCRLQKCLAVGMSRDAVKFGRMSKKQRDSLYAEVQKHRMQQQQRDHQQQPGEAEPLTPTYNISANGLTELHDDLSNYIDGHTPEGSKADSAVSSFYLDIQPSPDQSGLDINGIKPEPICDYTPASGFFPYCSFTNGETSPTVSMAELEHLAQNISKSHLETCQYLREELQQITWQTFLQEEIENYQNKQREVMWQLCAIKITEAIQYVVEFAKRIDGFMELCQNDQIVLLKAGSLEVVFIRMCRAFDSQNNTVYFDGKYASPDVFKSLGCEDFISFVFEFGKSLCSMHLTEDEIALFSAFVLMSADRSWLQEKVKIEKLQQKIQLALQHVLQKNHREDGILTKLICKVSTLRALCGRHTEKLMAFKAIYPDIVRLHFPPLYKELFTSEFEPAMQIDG
Sequence of Nuclear receptor ROR-gamma (Homo sapiens) (P51449 whole entry): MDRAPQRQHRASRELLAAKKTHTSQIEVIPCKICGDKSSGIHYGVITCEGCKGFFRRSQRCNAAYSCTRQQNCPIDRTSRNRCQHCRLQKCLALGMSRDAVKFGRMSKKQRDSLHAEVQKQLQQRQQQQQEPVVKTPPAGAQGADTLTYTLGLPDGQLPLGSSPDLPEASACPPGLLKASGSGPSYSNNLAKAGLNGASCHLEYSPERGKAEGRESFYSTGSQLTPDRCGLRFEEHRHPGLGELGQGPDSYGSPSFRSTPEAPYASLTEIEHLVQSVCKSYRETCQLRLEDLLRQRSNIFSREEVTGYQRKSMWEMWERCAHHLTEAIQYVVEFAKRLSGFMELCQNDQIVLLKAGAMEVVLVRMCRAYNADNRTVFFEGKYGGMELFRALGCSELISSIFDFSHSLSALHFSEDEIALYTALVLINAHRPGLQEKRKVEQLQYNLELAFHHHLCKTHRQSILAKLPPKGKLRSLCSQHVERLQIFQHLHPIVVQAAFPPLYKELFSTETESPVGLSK

SMILES: O=C(O)Cc1cc(I)c(Oc2ccc(O)c(I)c2)c(I)c1
Remaining activity [10]: 0.863
Remaining activity [11]: 0.686
Relative activation [12]: 0.726%
Fold activation [13]: 2
P-value [14]: 0.009
Fold activation [15]: 1.47
Fold activation [16]: 1.12

SMILES: COc1cc2c(cc1CC=C(C)C)C(=O)C[C@@H](c1ccc(O)cc1)O2
P-value [17]: 3.16e-05
Remaining activity [18]: 0.853
Remaining activity [19]: 0.857
Relative activation [20]: 0.529%
Remaining activity [21]: 0.758
Remaining activity [22]: 0.85
Remaining activity [23]: 0.683

SMILES: C[C@H]1[C@H]2CC[C@H]3[C@@H]4CC=C5C[C@@H](N(C)C)CC[C@]5(C)[C@H]4CC[C@]23CN1C
Remaining activity [24]: 0.964
Fold activation [25]: 1.09
Remaining activity [26]: 0.758
Remaining activity [27]: 0.83
P-value [28]: 0.00302
Remaining activity [29]: 0.746
Relative activation [30]: 19.4%

Now from value to compound:

Remaining activity [1]: 0.986
P-value [2]: 0.000127
Remaining activity [3]: 0.503
Remaining activity [4]: 0.42
Remaining activity [5]: 0.531
Remaining activity [6]: 0.42
Remaining activity [7]: 0.56
Remaining activity [8]: 0.532
Remaining activity [9]: 0.461
SMILES: CC(C=CC1=C(C)CCCC1(C)C)=CC=CC(C)=CC(=O)O

Relative activation [31]: 1.67%
Remaining activity [32]: 0.559
Remaining activity [33]: 0.741
P-value [34]: 0.0087
Remaining activity [35]: 0.569
Remaining activity [36]: 0.788
Remaining activity [37]: 0.559
SMILES: CC(C)c1cc(Oc2c(Cl)cc(-n3nc(C#N)c(=O)[nH]c3=O)cc2Cl)n[nH]c1=O
